Several values for one entry are separate records, joined by “and”; a condition that tells them apart may be missing. Equal entries are not always repeated.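 Test compounds were applied to cells in 96-well plates for 48 hours at 5 doses. GI50 marks 50% less growth. TGI marks complete inhibition of growth.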
Columns and labels:
Experiment in all cases: DTP human tumour cell line panel, 48 h
NCI-H23 lung = test system: NCI-H23 lung
SW-620 colon = test system: SW-620 colon
A498 renal = test system: A498 renal
SK-OV-3 ovarian = test system: SK-OV-3 ovarian
LOX IMVI melanoma = test system: LOX IMVI melanoma
SF-268 CNS = test system: SF-268 CNS
HL-60(TB) leukemia = test system: HL-60(TB) leukemia
SF-295 CNS = test system: SF-295 CNS
HOP-62 NSCLC = test system: HOP-62 NSCLC
EKVX NSCLC = test system: EKVX NSCLC
OVCAR-3 ovarian = test system: OVCAR-3 ovarian
SN12C renal = test system: SN12C renal
HOP-92 NSCLC = test system: HOP-92 NSCLC
NCI-H460 lung = test system: NCI-H460 lung
HCT-15 colon = test system: HCT-15 colon
OVCAR-5 ovarian = test system: OVCAR-5 ovarian
ACHN renal = test system: ACHN renal
MCF7 breast = test system: MCF7 breast
TK-10 renal = test system: TK-10 renal
A549 NSCLC = test system: A549 NSCLC
SF-539 CNS = test system: SF-539 CNS
COLO 205 colon = test system: COLO 205 colon
K-562 leukemia = test system: K-562 leukemia
MDA-MB-231 breast = test system: MDA-MB-231 breast
UO-31 renal = test system: UO-31 renal
SNB-75 CNS = test system: SNB-75 CNS
OVCAR-4 ovarian = test system: OVCAR-4 ovarian
T-47D breast = test system: T-47D breast
CAKI-1 renal = test system: CAKI-1 renal
UACC-257 melanoma = test system: UACC-257 melanoma
NCI/ADR-RES ovarian = test system: NCI/ADR-RES ovarian
PC-3 prostate = test system: PC-3 prostate
MOLT-4 leukemia = test system: MOLT-4 leukemia
SK-MEL-5 melanoma = test system: SK-MEL-5 melanoma
CCRF-CEM leukemia = test system: CCRF-CEM leukemia
SK-MEL-2 melanoma = test system: SK-MEL-2 melanoma
IGROV1 ovarian = test system: IGROV1 ovarian
SNB-19 CNS = test system: SNB-19 CNS
RXF 393 renal = test system: RXF 393 renal
U251 CNS = test system: U251 CNS
KM12 colon = test system: KM12 colon
RPMI-8226 leukemia = test system: RPMI-8226 leukemia
NCI-H226 lung = test system: NCI-H226 lung
M14 melanoma = test system: M14 melanoma
NCI-H522 lung = test system: NCI-H522 lung
786-0 renal = test system: 786-0 renal
DU-145 prostate = test system: DU-145 prostate
BT-549 breast = test system: BT-549 breast
UACC-62 melanoma = test system: UACC-62 melanoma
MDA-MB-435 = test system: MDA-MB-435
HT29 colon = test system: HT29 colon
HS 578T breast = test system: HS 578T breast
HCC-2998 colon = test system: HCC-2998 colon
HCT-116 colon = test system: HCT-116 colon
SK-MEL-28 melanoma = test system: SK-MEL-28 melanoma
OVCAR-8 ovarian = test system: OVCAR-8 ovarian
MALME-3M melanoma = test system: MALME-3M melanoma

## C1=C/COCc2cc(ccc2OCCN2CCCC2)Nc2nccc(n2)-c2cccc(c2)COC/1
NCI-H23 lung
  GI50: 628 nM and 1140 nM
  TGI: 2360 nM and 3210 nM
SW-620 colon
  GI50: 489 nM and 927 nM
  TGI: 2.59 µM and 3.69 µM
A498 renal
  GI50: 1250 nM and 1310 nM
  TGI: 2.7 µM and 3.98 µM
SK-OV-3 ovarian
  GI50: 1450 nM and 1190 nM
  TGI: 3280 nM and 2580 nM
LOX IMVI melanoma
  GI50: 370 nM and 580 nM
  TGI: 1580 nM and 2170 nM
SF-268 CNS
  GI50: 648 nM and 1050 nM
  TGI: 2560 nM and 2820 nM
HL-60(TB) leukemia
  GI50: 181 nM and 522 nM
  TGI: 887 nM and 2150 nM
SF-295 CNS
  GI50: 1580 nM and 1980 nM
  TGI: 3.34 µM and 4.29 µM
HOP-62 NSCLC
  GI50: 1110 nM and 1360 nM
  TGI: 4.39 µM and 3.23 µM
EKVX NSCLC
  GI50: 1720 nM and 1760 nM
  TGI: 8.83 µM and 5.74 µM
OVCAR-3 ovarian
  GI50: 849 nM and 1310 nM
  TGI: 2850 nM and 2890 nM
SN12C renal
  GI50: 587 nM and 586 nM
  TGI: 2620 nM and 2940 nM
HOP-92 NSCLC
  GI50: 1200 nM and 624 nM
  TGI: 6.38 µM and 3.15 µM
NCI-H460 lung
  GI50: 847 nM and 1080 nM
  TGI: 2750 nM and 3060 nM
HCT-15 colon
  GI50: 350 nM and 558 nM
  TGI: 2.3 µM and 6.84 µM
OVCAR-5 ovarian
  GI50: 356 nM and 717 nM
  TGI: 2360 nM and 2780 nM
ACHN renal
  GI50: 394 nM and 486 nM
  TGI: 2.76 µM and 3.68 µM
MCF7 breast
  GI50: 353 nM
  TGI: 1540 nM
TK-10 renal
  GI50: 1580 nM and 1090 nM
  TGI: 3.67 µM and 3.84 µM
A549 NSCLC
  GI50: 1060 nM and 1140 nM
  TGI: 3 µM and 3.38 µM
SF-539 CNS
  GI50: 1470 nM and 1800 nM
  TGI: 3 µM and 3.32 µM
COLO 205 colon
  GI50: 443 nM and 643 nM
  TGI: 1840 nM and 1850 nM
K-562 leukemia
  GI50: 639 nM and 1180 nM
  TGI: 4.05 µM and 4.51 µM
MDA-MB-231 breast
  GI50: 1170 nM and 798 nM
  TGI: 3.13 µM and 2.92 µM
UO-31 renal
  GI50: 366 nM and 758 nM
  TGI: 2020 nM and 3200 nM
SNB-75 CNS
  GI50: 1080 nM and 1140 nM
  TGI: 2440 nM and 2600 nM
OVCAR-4 ovarian
  GI50: 1550 nM and 1370 nM
  TGI: 4.51 µM and 3.21 µM
T-47D breast
  GI50: 509 nM and 949 nM
  TGI: 3.03 µM and 3.78 µM
CAKI-1 renal
  GI50: 443 nM and 463 nM
  TGI: 2040 nM and 2250 nM
UACC-257 melanoma
  GI50: 1650 nM and 1480 nM
  TGI: 3.25 µM and 2.99 µM
NCI/ADR-RES ovarian
  GI50: 1090 nM and 1760 nM
  TGI: 4.33 µM and 6.24 µM
PC-3 prostate
  GI50: 620 nM and 1010 nM
  TGI: 3.17 µM and 3.93 µM
MOLT-4 leukemia
  GI50: 369 nM and 689 nM
  TGI: 2.54 µM and 4.09 µM
SK-MEL-5 melanoma
  GI50: 672 nM
  TGI: 1820 nM
CCRF-CEM leukemia
  GI50: 652 nM and 1080 nM
  TGI: 11.5 µM and 6.62 µM
SK-MEL-2 melanoma
  GI50: 1550 nM and 1430 nM
  TGI: 3.57 µM and 3.22 µM
IGROV1 ovarian
  GI50: 498 nM and 552 nM
  TGI: 3.02 µM and 3.55 µM
SNB-19 CNS
  GI50: 1340 nM and 1850 nM
  TGI: 5.6 µM and 8.47 µM
RXF 393 renal
  GI50: 278 nM and 339 nM
  TGI: 784 nM and 1120 nM
U251 CNS
  GI50: 1120 nM and 1270 nM
  TGI: 2630 nM and 3140 nM
KM12 colon
  GI50: 149 nM and 224 nM
  TGI: 1400 nM and 1570 nM
RPMI-8226 leukemia
  GI50: 1370 nM and 1910 nM
  TGI: 4.64 µM and 5.84 µM
NCI-H226 lung
  GI50: 376 nM and 1280 nM
  TGI: 1820 nM and 2730 nM
M14 melanoma
  GI50: 669 nM and 997 nM
  TGI: 2460 nM and 2430 nM
NCI-H522 lung
  GI50: 1750 nM and 1440 nM
  TGI: 3.75 µM and 3.4 µM
786-0 renal
  GI50: 1280 nM and 1400 nM
  TGI: 3.14 µM and 2.88 µM
DU-145 prostate
  GI50: 433 nM and 749 nM
  TGI: 11.2 µM and 3.66 µM
BT-549 breast
  GI50: 2150 nM and 2300 nM
  TGI: 5.02 µM and 4.87 µM
UACC-62 melanoma
  GI50: 641 nM and 1300 nM
  TGI: 2120 nM and 2730 nM
MDA-MB-435
  GI50: 582 nM
  TGI: 1990 nM and 2030 nM
HT29 colon
  GI50: 481 nM and 542 nM
  TGI: 2450 nM and 2640 nM
HS 578T breast
  GI50: 1290 nM and 1680 nM
  TGI: 4.47 µM and 5.56 µM
HCC-2998 colon
  GI50: 1180 nM and 1280 nM
  TGI: 3.19 µM and 3.1 µM
HCT-116 colon
  GI50: 457 nM and 498 nM
  TGI: 2390 nM and 1780 nM
SK-MEL-28 melanoma
  GI50: 1290 nM and 1150 nM
  TGI: 2860 nM and 2430 nM
OVCAR-8 ovarian
  GI50: 1280 nM and 1840 nM
  TGI: 4.31 µM and 8.03 µM
MALME-3M melanoma
  GI50: 680 nM and 1210 nM
  TGI: 2190 nM and 2890 nM

— PubChem BioAssay (NCI)
